Data: BindingDB's records for doi:10.1016/j.bmcl.2005.04.064 (Semmelweis University, 2005)

What follows are compounds tested against SRPK1 (Homo sapiens) (assay: In vitro inhibition of SR protein kinase 1 by compound dissolved in 100% DMSO using 5''-[gamma-33P]-triphosphate).
With O=C(O)c1ccc2cc3nc(-c4cccs4)c(-c4cccs4)nc3cc2c1 [2,3-Di-thiophen-2-yl-benzo[g]quinoxaline-7-carboxylic acid] the IC50 was 40 nM.
In the case of c1csc(-c2nc3cc4ccccc4cc3nc2-c2cccs2)c1 [2,3-Di-thiophen-2-yl-benzo[g]quinoxaline], the IC50 is reported as 1360 nM.
Work on Oc1cc2nc(-c3cccs3)c(-c3cccs3)nc2cc1O [2,3-Di-thiophen-2-yl-quinoxaline-6,7-diol] yielded an IC50 of 9610 nM.
O=C(O)CCc1ccc(-c2nc3cc4ccccc4cc3nc2-c2ccc(CCC(=O)O)s2)s1 [3-(5-{3-[5-(2-Carboxy-ethyl)-thiophen-2-yl]-benzo[g]quinoxalin-2-yl}-thiophen-2-yl)-propionic acid] gave an IC50 of 870 nM.
Work on COC(=O)CCc1ccc(-c2nc3cc4ccccc4cc3nc2-c2ccc(CCC(=O)OC)s2)s1 [3-(5-{3-[5-(2-Methoxycarbonyl-ethyl)-thiophen-2-yl]-benzo[g]quinoxalin-2-yl}-thiophen-2-yl)-propionic acid methyl ester] yielded an IC50 of 6130 nM.
For O=C(O)CCCc1ccc(-c2nc3cc4ccccc4cc3nc2-c2ccc(CCCC(=O)O)s2)s1 [4-(5-{3-[5-(3-Carboxy-propyl)-thiophen-2-yl]-benzo[g]quinoxalin-2-yl}-thiophen-2-yl)-butyric acid], the IC50 was 820 nM.
Work on O=C(O)C1COc2cc3nc(-c4cccs4)c(-c4cccs4)nc3cc2O1 (stereo unspecified) [6,7-Di-thiophen-2-yl-2,3-dihydro-1,4-dioxa-5,8-diaza-anthracene-2-carboxylic acid] yielded an IC50 of 950 nM.
For c1csc(-c2nc3cc4c(cc3nc2-c2cccs2)OCCO4)c1 [6,7-Di-thiophen-2-yl-2,3-dihydro-1,4-dioxa-5,8-diaza-anthracene], the IC50 was 23400 nM.
With COc1cc2nc(-c3cccs3)c(-c3cccs3)nc2cc1OC [6,7-Dimethoxy-2,3-di-thiophen-2-yl-quinoxaline] the IC50 was 16300 nM.
COc1cc2nc3nc(-c4cccs4)c(-c4cccs4)nc3nc2cc1OC [7,8-Dimethoxy-2,3-di-thiophen-2-yl-pyrazino[2,3-b]quinoxaline] showed an IC50 of 1140 nM.
Compound COC(=O)Cc1csc(-c2nc3cc4ccccc4cc3nc2-c2cc(CC(=O)OC)cs2)c1 [{5-[3-(4-Methoxycarbonylmethyl-thiophen-2-yl)-benzo[g]quinoxalin-2-yl]-thiophen-3-yl}-acetic acid methyl ester] has an IC50 of 11800 nM.
